This passage reports surviving fraction results from the supplement of paper PMC6045584.

± gives the standard deviation of the averaged measurements.

Compound in one assay: Cn1nnc2c(C(N)=O)ncn2c1=O [TEMOZOLOMIDE]
In words: surviving fraction relative to DMSO-only wells; higher = less growth inhibition. The conditions noted are these: exposure time: 5 days. In short, it runs like this:
(§1)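 In 384-well plates, 250–500 log-phase tumour cells per well were given 24 hours before five days of continuous exposure to inhibitors at 0.5, 1, 5, 10, 50, 100, 500 and 1000 nM. Surviving fraction is luminescence from CellTiter-Glo, normalised to the median of wells containing DMSO alone. Reading took place after 10 minutes at room temperature.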

Compound in another assay: C[C@@H](Oc1cc(-c2cnn(C3CCNCC3)c2)cnc1N)c1c(Cl)ccc(F)c1Cl [CRIZOTINIB]
The description is as above. The conditions noted are these: exposure time: 5 days. In short, it runs like this:
as §1

For HCC78 LUNG, the surviving fraction with TEMOZOLOMIDE (0.5 nM) was 0.804 ± 0.046; in the assay with TEMOZOLOMIDE (1 nM), 0.791 ± 0.14; with TEMOZOLOMIDE (5 nM), 0.941 ± 0.062; in the assay with TEMOZOLOMIDE (10 nM) it was 1.02 ± 0.069; in the assay with TEMOZOLOMIDE (50 nM), 0.984 ± 0.11; with TEMOZOLOMIDE (100 nM), 0.916 ± 0.14. Moreover, the surviving fraction with TEMOZOLOMIDE (500 nM) came to 0.907 ± 0.058; with TEMOZOLOMIDE (1000 nM) it was 0.785 ± 0.18; in the assay with CRIZOTINIB (0.5 nM), 0.99 ± 0.11; with CRIZOTINIB (1 nM), 1 ± 0.074; in the assay with CRIZOTINIB (50 nM) it was 0.521 ± 0.021; in the assay with CRIZOTINIB (100 nM) it was 0.522 ± 0.082. Moreover, the values for the surviving fraction with CRIZOTINIB (500 nM) and with CRIZOTINIB (1000 nM) were 0.216 ± 0.062 and 0.072 ± 0.029, respectively.

As for SUM159 BREAST, the surviving fraction worked out at 1.01 ± 0.057 in the assay with TEMOZOLOMIDE (0.5 nM); 1.06 ± 0.035 in the assay with TEMOZOLOMIDE (1 nM); 1.039 ± 0.0092 in the assay with TEMOZOLOMIDE (5 nM); 1.07 ± 0.024 with TEMOZOLOMIDE (10 nM); 1.02 ± 0.021 with TEMOZOLOMIDE (50 nM); 1.05 ± 0.021 with TEMOZOLOMIDE (100 nM). The surviving fraction with TEMOZOLOMIDE (500 nM) is 1.04 ± 0.029; with TEMOZOLOMIDE (1000 nM) it was 1.06 ± 0.0095; with CRIZOTINIB (0.5 nM), 1.11 ± 0.03; in the assay with CRIZOTINIB (1 nM), 1.12 ± 0.056; with CRIZOTINIB (5 nM), 1.12 ± 0.039; in the assay with CRIZOTINIB (10 nM), 1.11 ± 0.022. The figures for the surviving fraction with CRIZOTINIB (50 nM), in the assay with CRIZOTINIB (100 nM) and with CRIZOTINIB (500 nM) were 1.09 ± 0.011, 1.103 ± 0.004 and 1.11 ± 0.013, respectively.

With U2OS BONE, the surviving fraction amounted to 0.988 ± 0.017 in the assay with TEMOZOLOMIDE (0.5 nM); 0.988 ± 0.034 with TEMOZOLOMIDE (1 nM); 1.04 ± 0.022 with TEMOZOLOMIDE (5 nM); 1.02 ± 0.045 with TEMOZOLOMIDE (10 nM); 1.06 ± 0.029 with TEMOZOLOMIDE (50 nM); 1.06 ± 0.023 with TEMOZOLOMIDE (100 nM). Also, the surviving fraction was determined as 1.02 ± 0.028 with TEMOZOLOMIDE (500 nM); 1.01 ± 0.023 in the assay with TEMOZOLOMIDE (1000 nM); 1.02 ± 0.026 with CRIZOTINIB (0.5 nM); 1.05 ± 0.033 with CRIZOTINIB (1 nM); 1.03 ± 0.042 with CRIZOTINIB (5 nM); 1.05 ± 0.029 in the assay with CRIZOTINIB (10 nM). Also, the surviving fraction in the assay with CRIZOTINIB (100 nM) came out at 1.05 ± 0.013; in the assay with CRIZOTINIB (500 nM), 0.539 ± 0.023; with CRIZOTINIB (1000 nM), 0.459 ± 0.033.

With MDAMB231 BREAST, the surviving fraction with TEMOZOLOMIDE (0.5 nM) came to 0.9454 ± 0.0069; with TEMOZOLOMIDE (1 nM), 0.992 ± 0.024; with TEMOZOLOMIDE (5 nM), 0.9815 ± 0.008; in the assay with TEMOZOLOMIDE (10 nM) it was 1.01 ± 0.016; in the assay with TEMOZOLOMIDE (50 nM), 0.986 ± 0.013; in the assay with TEMOZOLOMIDE (100 nM), 0.998 ± 0.023. In addition, the surviving fraction amounted to 0.975 ± 0.015 with TEMOZOLOMIDE (500 nM); 0.985 ± 0.025 in the assay with TEMOZOLOMIDE (1000 nM); 0.997 ± 0.019 in the assay with CRIZOTINIB (0.5 nM); 1.01 ± 0.024 in the assay with CRIZOTINIB (1 nM); 0.999 ± 0.034 with CRIZOTINIB (5 nM); 1 ± 0.023 with CRIZOTINIB (10 nM). Further, the surviving fraction with CRIZOTINIB (50 nM) is 0.947 ± 0.031; with CRIZOTINIB (100 nM) it was 0.9384 ± 0.0074; with CRIZOTINIB (500 nM), 0.541 ± 0.011; in the assay with CRIZOTINIB (1000 nM) it was 0.352 ± 0.022.

For CME SYNOVIAL, the surviving fraction in the assay with TEMOZOLOMIDE (0.5 nM) was determined as 1.31 ± 0.12; with TEMOZOLOMIDE (1 nM), 1.21 ± 0.12; with TEMOZOLOMIDE (5 nM), 1.24 ± 0.033; with TEMOZOLOMIDE (10 nM), 1.33 ± 0.18; in the assay with TEMOZOLOMIDE (50 nM), 1.34 ± 0.12; with TEMOZOLOMIDE (100 nM), 1.46 ± 0.064. The surviving fraction in the assay with TEMOZOLOMIDE (500 nM) came out at 1.34 ± 0.027; with TEMOZOLOMIDE (1000 nM) it was 1.39 ± 0.065; with CRIZOTINIB (0.5 nM), 1.23 ± 0.11; in the assay with CRIZOTINIB (1 nM) it was 1.23 ± 0.1; with CRIZOTINIB (5 nM), 1.36 ± 0.16; with CRIZOTINIB (50 nM) it was 1.21 ± 0.1. For the same test system, the surviving fraction with CRIZOTINIB (100 nM) came out at 1.18 ± 0.022; with CRIZOTINIB (500 nM), 0.65 ± 0.035; in the assay with CRIZOTINIB (1000 nM), 0.286 ± 0.033.

With T47D BREAST, the surviving fraction in the assay with TEMOZOLOMIDE (0.5 nM) is 0.982 ± 0.011; with TEMOZOLOMIDE (1 nM), 1.057 ± 0.0064; with TEMOZOLOMIDE (5 nM), 1.04 ± 0.034; in the assay with TEMOZOLOMIDE (10 nM), 1.04 ± 0.055; with TEMOZOLOMIDE (50 nM), 1.06 ± 0.053; with TEMOZOLOMIDE (100 nM) it was 1.1 ± 0.018. In addition, the surviving fraction with TEMOZOLOMIDE (500 nM) is 1.08 ± 0.032; with TEMOZOLOMIDE (1000 nM), 1.09 ± 0.025; with CRIZOTINIB (0.5 nM) it was 1.07 ± 0.024; in the assay with CRIZOTINIB (1 nM), 1.08 ± 0.079; with CRIZOTINIB (5 nM), 1.1 ± 0.043; in the assay with CRIZOTINIB (10 nM), 1.08 ± 0.03. For the same test system, the surviving fraction is 1.07 ± 0.045 with CRIZOTINIB (50 nM), 1.099 ± 0.0093 with CRIZOTINIB (100 nM), 1.03 ± 0.038 with CRIZOTINIB (500 nM) and 0.93 ± 0.041 in the assay with CRIZOTINIB (1000 nM).

Consider MDAMB436 BREAST, for which the surviving fraction with TEMOZOLOMIDE (0.5 nM) amounted to 0.976 ± 0.14; with TEMOZOLOMIDE (1 nM), 1.03 ± 0.15; in the assay with TEMOZOLOMIDE (5 nM), 0.997 ± 0.13; in the assay with TEMOZOLOMIDE (10 nM) it was 1.09 ± 0.17; with TEMOZOLOMIDE (50 nM), 0.936 ± 0.1; with TEMOZOLOMIDE (100 nM), 1.04 ± 0.14. The surviving fraction amounted to 1.03 ± 0.11 with TEMOZOLOMIDE (500 nM); 0.959 ± 0.051 in the assay with TEMOZOLOMIDE (1000 nM); 1.01 ± 0.032 with CRIZOTINIB (0.5 nM); 0.97 ± 0.11 with CRIZOTINIB (1 nM); 1.02 ± 0.086 with CRIZOTINIB (5 nM); 1.03 ± 0.13 with CRIZOTINIB (10 nM). Further, the surviving fraction is 0.965 ± 0.11 with CRIZOTINIB (50 nM), 1.07 ± 0.022 with CRIZOTINIB (100 nM) and 0.916 ± 0.1 in the assay with CRIZOTINIB (1000 nM).

On to DU4475 BREAST, for which the surviving fraction with TEMOZOLOMIDE (0.5 nM) turned out to be 0.877 ± 0.091; with TEMOZOLOMIDE (1 nM), 0.998 ± 0.053; in the assay with TEMOZOLOMIDE (5 nM), 0.973 ± 0.19; with TEMOZOLOMIDE (10 nM) it was 0.878 ± 0.093; with TEMOZOLOMIDE (50 nM) it was 0.851 ± 0.08; with TEMOZOLOMIDE (100 nM), 1.01 ± 0.2. The surviving fraction with TEMOZOLOMIDE (500 nM) was determined as 0.972 ± 0.24; with TEMOZOLOMIDE (1000 nM), 0.989 ± 0.067; with CRIZOTINIB (0.5 nM) it was 0.991 ± 0.16; in the assay with CRIZOTINIB (1 nM) it was 1 ± 0.12; in the assay with CRIZOTINIB (10 nM), 0.947 ± 0.17; in the assay with CRIZOTINIB (500 nM), 0.611 ± 0.05. Moreover, in the assay with CRIZOTINIB (1000 nM), the surviving fraction is 0.389 ± 0.057.

Regarding HOS BONE, the surviving fraction came to 0.994 ± 0.018 with TEMOZOLOMIDE (0.5 nM); 1.038 ± 0.0071 with TEMOZOLOMIDE (1 nM); 1.028 ± 0.0056 with TEMOZOLOMIDE (5 nM); 1.05 ± 0.042 in the assay with TEMOZOLOMIDE (10 nM); 1.04 ± 0.012 with TEMOZOLOMIDE (50 nM); 1.04 ± 0.012 in the assay with TEMOZOLOMIDE (100 nM). Besides, the surviving fraction with TEMOZOLOMIDE (500 nM) amounted to 1.04 ± 0.016; with TEMOZOLOMIDE (1000 nM), 1.058 ± 0.0076; in the assay with CRIZOTINIB (0.5 nM), 1.03 ± 0.026; in the assay with CRIZOTINIB (5 nM) it was 1.05 ± 0.017; in the assay with CRIZOTINIB (50 nM), 1.04 ± 0.025; in the assay with CRIZOTINIB (100 nM), 1.09 ± 0.022. The results for the surviving fraction with CRIZOTINIB (500 nM) and in the assay with CRIZOTINIB (1000 nM) were 0.685 ± 0.041 and 0.575 ± 0.014, respectively.
